Common to all, as to assay: KINOMEscan (ScanMAX) kinase profiling
Common to all, as to assay type: binding

Assay [1] concerns the target T1, panel of 468 kinases (Homo sapiens, UniProt P15056, V600E).
T1 construct: purchased KINOMEscan (ScanMAX) service
Conditions: BRAF(V600E); 1 μM; read-out: % control.

The target of assay [2] is T2, panel of 468 kinases (Homo sapiens, UniProt Q13163).
T2 construct: purchased KINOMEscan (ScanMAX) service
T2 sequence (Q13163 1-448): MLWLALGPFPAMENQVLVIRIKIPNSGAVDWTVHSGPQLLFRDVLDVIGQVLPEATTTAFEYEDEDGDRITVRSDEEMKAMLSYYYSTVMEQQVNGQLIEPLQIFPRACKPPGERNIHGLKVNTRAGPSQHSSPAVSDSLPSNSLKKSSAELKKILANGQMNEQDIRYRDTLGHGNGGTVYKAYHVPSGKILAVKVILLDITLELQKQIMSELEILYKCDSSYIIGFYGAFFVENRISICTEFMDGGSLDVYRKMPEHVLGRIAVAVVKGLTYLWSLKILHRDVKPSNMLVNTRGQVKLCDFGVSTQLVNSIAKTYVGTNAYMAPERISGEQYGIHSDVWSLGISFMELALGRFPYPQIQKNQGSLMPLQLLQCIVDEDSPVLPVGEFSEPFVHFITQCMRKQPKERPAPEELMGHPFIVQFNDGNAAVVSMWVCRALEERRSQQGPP
Particulars: MEK5; 1 μM; read-out: % control.

Assay [3] deals with T3, panel of 468 kinases (Homo sapiens, UniProt Q13882).
T3 construct: purchased KINOMEscan (ScanMAX) service
Particulars: BRK; 1 μM; read-out: % control.

Assay [4] has as its target T4, panel of 468 kinases (Homo sapiens, UniProt P27037).
T4 construct: purchased KINOMEscan (ScanMAX) service
Conditions: ACVR2A; 1 μM; read-out: % control.

Assay [5] concerns the target T5, panel of 468 kinases (Homo sapiens, UniProt P53671).
T5 construct: purchased KINOMEscan (ScanMAX) service
Conditions: LIMK2; 1 μM; read-out: % control.

The target in assay [6] is T6, panel of 468 kinases (Homo sapiens, UniProt Q9Y616).
T6 construct: purchased KINOMEscan (ScanMAX) service
T6 sequence (Q9Y616 1-596): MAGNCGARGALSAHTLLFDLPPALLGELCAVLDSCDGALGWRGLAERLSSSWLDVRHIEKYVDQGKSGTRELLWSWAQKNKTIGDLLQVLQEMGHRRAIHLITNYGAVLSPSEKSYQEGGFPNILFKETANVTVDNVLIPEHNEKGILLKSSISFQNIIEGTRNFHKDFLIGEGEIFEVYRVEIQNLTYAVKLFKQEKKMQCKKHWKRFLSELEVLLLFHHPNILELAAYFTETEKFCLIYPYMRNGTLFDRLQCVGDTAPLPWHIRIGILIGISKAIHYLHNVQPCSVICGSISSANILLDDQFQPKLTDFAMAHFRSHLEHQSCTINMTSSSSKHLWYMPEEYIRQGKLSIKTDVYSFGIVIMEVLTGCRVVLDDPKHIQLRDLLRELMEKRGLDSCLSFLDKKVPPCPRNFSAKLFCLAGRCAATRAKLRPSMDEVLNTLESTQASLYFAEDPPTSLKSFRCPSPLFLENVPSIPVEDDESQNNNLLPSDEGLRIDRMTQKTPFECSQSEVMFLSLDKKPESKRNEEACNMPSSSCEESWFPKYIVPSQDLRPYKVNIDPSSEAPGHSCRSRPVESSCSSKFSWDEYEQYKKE
Conditions: IRAK3; 1 μM; read-out: % control.

Assay [7] concerns the target T7, panel of 468 kinases (Homo sapiens, UniProt Q9H4B4).
T7 construct: purchased KINOMEscan (ScanMAX) service
Conditions: PLK3; 1 μM; read-out: % control.

Assay [8] has as its target T8, panel of 468 kinases (Homo sapiens, UniProt P42681).
T8 construct: purchased KINOMEscan (ScanMAX) service
T8 sequence (P42681 1-527): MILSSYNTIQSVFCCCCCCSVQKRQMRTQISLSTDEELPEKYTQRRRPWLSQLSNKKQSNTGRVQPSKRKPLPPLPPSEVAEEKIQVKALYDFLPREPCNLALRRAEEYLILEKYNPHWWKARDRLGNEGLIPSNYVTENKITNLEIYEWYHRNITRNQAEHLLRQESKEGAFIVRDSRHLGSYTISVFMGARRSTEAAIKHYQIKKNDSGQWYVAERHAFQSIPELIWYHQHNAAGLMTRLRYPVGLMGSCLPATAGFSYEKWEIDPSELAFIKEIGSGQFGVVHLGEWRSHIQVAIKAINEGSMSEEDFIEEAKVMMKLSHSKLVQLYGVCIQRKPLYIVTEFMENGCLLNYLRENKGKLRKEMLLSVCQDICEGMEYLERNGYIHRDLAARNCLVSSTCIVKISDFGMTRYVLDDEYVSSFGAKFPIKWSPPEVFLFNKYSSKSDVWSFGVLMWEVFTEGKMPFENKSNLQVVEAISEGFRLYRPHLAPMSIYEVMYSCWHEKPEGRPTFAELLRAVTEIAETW
Conditions: TXK; 1 μM; read-out: % control.

The target of assay [9] is T9, panel of 468 kinases (Homo sapiens, UniProt Q13555).
T9 construct: purchased KINOMEscan (ScanMAX) service
Conditions: CAMK2G; 1 μM; read-out: % control.

Assay [10] deals with T10, panel of 468 kinases (Homo sapiens, UniProt P51617).
T10 construct: purchased KINOMEscan (ScanMAX) service
Particulars: IRAK1; 1 μM; read-out: % control.

Assay [11] deals with T11, panel of 468 kinases (Homo sapiens, UniProt Q00532).
T11 construct: purchased KINOMEscan (ScanMAX) service
Conditions: CDKL1; 1 μM; read-out: % control.

Assay [12] has as its target T12, panel of 468 kinases (Homo sapiens, UniProt P37173).
T12 construct: purchased KINOMEscan (ScanMAX) service
Particulars: TGFBR2; 1 μM; read-out: % control.

T9 sequence (Q13555 whole entry): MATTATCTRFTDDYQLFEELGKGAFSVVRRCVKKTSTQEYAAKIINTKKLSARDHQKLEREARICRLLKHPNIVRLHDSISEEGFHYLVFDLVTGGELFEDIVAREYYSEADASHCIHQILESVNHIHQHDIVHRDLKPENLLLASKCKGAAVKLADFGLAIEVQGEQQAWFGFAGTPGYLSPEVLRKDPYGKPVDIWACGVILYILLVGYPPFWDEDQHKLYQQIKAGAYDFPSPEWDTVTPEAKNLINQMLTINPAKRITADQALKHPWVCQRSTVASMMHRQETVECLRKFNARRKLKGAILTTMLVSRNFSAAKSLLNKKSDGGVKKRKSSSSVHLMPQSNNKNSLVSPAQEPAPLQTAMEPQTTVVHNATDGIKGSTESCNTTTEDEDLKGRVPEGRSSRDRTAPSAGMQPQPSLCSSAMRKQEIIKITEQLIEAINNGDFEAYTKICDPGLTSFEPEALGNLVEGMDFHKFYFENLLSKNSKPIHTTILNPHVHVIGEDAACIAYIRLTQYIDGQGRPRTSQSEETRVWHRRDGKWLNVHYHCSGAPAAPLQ
T4 sequence (P27037 20-513): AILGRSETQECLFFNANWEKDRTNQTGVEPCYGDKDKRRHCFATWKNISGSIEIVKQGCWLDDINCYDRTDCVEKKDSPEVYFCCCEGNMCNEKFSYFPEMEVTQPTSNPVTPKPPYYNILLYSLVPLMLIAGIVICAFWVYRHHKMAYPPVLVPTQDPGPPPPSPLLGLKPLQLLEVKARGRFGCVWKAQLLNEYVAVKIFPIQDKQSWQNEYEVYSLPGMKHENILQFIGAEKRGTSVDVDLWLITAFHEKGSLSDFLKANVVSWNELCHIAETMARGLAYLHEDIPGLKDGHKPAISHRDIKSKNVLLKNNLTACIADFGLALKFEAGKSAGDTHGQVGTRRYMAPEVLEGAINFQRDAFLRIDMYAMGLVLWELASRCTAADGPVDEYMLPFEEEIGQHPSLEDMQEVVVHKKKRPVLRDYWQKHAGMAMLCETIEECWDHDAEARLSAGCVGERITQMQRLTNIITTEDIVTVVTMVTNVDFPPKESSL
T1 sequence (P15056 whole entry V600E): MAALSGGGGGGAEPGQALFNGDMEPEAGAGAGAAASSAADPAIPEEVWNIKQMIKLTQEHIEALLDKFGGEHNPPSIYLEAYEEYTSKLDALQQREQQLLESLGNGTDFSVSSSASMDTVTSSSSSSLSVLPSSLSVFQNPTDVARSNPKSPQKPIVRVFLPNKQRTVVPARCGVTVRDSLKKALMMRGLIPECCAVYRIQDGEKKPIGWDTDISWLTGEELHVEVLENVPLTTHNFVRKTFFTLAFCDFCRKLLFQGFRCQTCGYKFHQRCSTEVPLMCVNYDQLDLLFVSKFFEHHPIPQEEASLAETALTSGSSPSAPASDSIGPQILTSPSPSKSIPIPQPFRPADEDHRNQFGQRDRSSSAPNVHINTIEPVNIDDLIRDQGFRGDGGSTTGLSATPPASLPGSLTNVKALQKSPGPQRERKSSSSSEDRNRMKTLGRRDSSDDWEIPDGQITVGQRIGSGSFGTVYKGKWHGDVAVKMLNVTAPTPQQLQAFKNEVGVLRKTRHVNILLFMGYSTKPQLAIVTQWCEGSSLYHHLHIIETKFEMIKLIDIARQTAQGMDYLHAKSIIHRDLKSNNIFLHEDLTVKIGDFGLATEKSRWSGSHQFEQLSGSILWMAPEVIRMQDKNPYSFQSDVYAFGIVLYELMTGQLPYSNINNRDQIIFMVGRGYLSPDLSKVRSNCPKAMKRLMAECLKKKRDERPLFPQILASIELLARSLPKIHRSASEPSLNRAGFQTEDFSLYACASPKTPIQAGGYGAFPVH
T12 sequence (P37173 23-567): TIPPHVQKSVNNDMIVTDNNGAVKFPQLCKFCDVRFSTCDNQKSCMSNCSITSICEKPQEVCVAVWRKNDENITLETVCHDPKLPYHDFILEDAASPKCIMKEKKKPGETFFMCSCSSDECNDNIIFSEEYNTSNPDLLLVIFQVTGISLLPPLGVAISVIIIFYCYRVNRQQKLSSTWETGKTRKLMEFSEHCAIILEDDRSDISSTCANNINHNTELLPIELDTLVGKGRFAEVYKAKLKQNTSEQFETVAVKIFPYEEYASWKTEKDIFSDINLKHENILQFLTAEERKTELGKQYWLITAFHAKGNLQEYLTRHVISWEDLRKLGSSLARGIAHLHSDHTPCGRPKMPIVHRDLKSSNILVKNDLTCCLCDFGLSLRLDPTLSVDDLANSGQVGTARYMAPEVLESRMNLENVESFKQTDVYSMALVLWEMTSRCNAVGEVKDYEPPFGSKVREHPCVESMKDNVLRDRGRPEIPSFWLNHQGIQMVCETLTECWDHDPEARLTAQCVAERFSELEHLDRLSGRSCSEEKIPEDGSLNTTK
T3 sequence (Q13882 whole entry): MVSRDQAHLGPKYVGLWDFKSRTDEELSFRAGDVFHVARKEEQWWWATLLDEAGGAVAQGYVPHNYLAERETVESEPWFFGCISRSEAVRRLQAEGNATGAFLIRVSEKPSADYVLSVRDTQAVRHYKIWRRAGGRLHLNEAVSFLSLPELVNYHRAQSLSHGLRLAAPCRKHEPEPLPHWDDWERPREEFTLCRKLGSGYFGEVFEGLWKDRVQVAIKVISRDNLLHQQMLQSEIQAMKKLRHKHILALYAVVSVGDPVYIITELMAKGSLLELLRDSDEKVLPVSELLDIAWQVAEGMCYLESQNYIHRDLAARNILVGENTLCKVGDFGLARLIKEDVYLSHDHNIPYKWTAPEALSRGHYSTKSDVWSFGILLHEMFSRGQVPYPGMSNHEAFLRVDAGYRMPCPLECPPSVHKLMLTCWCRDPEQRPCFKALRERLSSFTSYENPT
T11 sequence (Q00532 whole entry): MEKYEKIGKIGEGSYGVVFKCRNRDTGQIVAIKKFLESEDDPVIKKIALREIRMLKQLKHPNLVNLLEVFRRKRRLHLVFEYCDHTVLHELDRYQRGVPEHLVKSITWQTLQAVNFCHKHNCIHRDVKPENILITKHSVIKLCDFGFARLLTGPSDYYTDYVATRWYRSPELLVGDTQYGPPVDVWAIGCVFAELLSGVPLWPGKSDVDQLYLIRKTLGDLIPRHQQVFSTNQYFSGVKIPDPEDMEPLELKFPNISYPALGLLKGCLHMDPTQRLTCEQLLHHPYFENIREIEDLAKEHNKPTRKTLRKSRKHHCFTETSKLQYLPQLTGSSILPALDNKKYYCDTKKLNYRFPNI
T5 sequence (P53671 whole entry): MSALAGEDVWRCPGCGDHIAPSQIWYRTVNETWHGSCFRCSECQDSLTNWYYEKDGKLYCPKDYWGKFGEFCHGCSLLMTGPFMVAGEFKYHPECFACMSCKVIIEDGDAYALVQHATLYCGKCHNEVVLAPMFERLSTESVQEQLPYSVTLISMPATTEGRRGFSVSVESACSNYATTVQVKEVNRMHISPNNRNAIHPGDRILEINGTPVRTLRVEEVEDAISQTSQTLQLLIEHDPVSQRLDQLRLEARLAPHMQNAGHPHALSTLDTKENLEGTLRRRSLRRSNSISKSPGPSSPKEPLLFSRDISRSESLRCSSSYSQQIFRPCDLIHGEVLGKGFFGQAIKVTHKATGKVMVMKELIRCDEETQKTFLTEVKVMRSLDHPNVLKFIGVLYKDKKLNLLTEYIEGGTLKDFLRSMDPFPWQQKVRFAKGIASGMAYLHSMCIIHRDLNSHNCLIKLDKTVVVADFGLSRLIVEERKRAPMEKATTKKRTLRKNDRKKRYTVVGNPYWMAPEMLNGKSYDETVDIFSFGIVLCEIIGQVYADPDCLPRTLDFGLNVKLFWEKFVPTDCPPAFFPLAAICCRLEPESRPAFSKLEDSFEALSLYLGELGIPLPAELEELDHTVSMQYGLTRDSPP
T7 sequence (Q9H4B4 whole entry): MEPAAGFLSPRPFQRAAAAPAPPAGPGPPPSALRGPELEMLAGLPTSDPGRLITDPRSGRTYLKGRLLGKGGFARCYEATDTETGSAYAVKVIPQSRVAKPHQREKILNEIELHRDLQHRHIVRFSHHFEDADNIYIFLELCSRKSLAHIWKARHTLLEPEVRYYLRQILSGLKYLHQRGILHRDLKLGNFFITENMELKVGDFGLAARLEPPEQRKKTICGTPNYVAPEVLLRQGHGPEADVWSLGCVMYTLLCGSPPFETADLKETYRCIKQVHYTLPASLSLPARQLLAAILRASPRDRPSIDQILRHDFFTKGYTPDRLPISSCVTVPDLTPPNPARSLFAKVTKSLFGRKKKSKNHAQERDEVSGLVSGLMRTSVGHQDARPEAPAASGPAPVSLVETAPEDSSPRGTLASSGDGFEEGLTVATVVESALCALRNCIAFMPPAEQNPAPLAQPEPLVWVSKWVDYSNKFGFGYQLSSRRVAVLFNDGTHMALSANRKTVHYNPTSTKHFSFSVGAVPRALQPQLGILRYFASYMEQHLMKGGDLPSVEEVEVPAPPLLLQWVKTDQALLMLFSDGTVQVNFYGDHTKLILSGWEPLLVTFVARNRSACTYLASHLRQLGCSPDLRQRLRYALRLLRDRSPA

Turning to `CNc1nc(Nc2ccc(S(=O)(=O)N3CCC(N4CCOCC4)CC3)cc2OC)nc2[nH]cc(Cl)c12` [Compound 12, 5-chloro-N2-(2-methoxy-4-((4-morpholinopiperidin-1-yl)sulfonyl)phenyl)-N4-methyl-7H-pyrrolo[2,3-d]pyrimidine-2,4-diamine], the remaining binding at 1 µM was found to be 91% at panel of 468 kinases [1]; 86% at panel of 468 kinases [2]; 100% on panel of 468 kinases [3]; 100% at panel of 468 kinases [4]; 100% on panel of 468 kinases [5]; 100% on panel of 468 kinases [6]. Also, the remaining binding at 1 µM on panel of 468 kinases [7] was found to be 100%; on panel of 468 kinases [8], 100%; on panel of 468 kinases [9], 100%; on panel of 468 kinases [10], 92%; at panel of 468 kinases [11], 85%; at panel of 468 kinases [12] it was 100%.
For the molecule `CNc1nc(Nc2ccc(P3(=O)CCN(C4CCOCC4)CC3)cc2OC)nc2[nH]cc(Cl)c12` [Compound 77, 4-(4-((5-chloro-4-(methylamino)-7H-pyrrolo[2,3-d]pyrimidin-2-yl)amino)-3-methoxyphenyl)-1-(tetrahydro-2H-pyran-4-yl)-1,4-azaphosphinane 4-oxide], the remaining binding at 1 µM was 88% at panel of 468 kinases [1]; 61% on panel of 468 kinases [2]; 94% on panel of 468 kinases [3]; 100% on panel of 468 kinases [4]; 84% on panel of 468 kinases [5]; 94% at panel of 468 kinases [6]. Besides, the remaining binding at 1 µM on panel of 468 kinases [7] turned out to be 96%; on panel of 468 kinases [8] it was 98%; on panel of 468 kinases [9] it was 97%; on panel of 468 kinases [10] it was 88%; on panel of 468 kinases [11], 87%; on panel of 468 kinases [12], 100%.
Turning to `CNc1nc(Nc2ccc(C(=O)N3CCC(N4CCOCC4)CC3)c3c2OCO3)nc2[nH]cc(Cl)c12` [Compound 75, (7-((5-chloro-4-(methylamino)-7H-pyrrolo[2,3-d]pyrimidin-2-yl)amino)benzo[d][1,3]dioxol-4-yl)(4-morpholinopiperidin-1-yl)methanone], the remaining binding at 1 µM at panel of 468 kinases [1] amounted to 100%; on panel of 468 kinases [2], 47%; on panel of 468 kinases [3] it was 99%; at panel of 468 kinases [4] it was 100%; on panel of 468 kinases [5], 99%; at panel of 468 kinases [6], 93%. For the same molecule, the remaining binding at 1 µM on panel of 468 kinases [7] was 100%; at panel of 468 kinases [8] it was 87%; on panel of 468 kinases [9] it was 100%; on panel of 468 kinases [10], 51%; at panel of 468 kinases [11], 95%; on panel of 468 kinases [12], 100%.

Source of the values: patent US12479847B2 (DANA-FARBER CANCER INSTITUTE, INC., priority 2019, dated 2025).
